Test results reported in patent publication US11998549B2, “Methods of treating a vascular leakage-associated disease or disorder” (UNITY HEALTH TORONTO, priority 2019, dated 2024).

Key:
Assay type in all cases: in vivo
[1] = system: LPS induced zebrafish sepsis model; assay: Survival in LPS induced zebrafish sepsis model; details: comparison of UNC0642 and A366, zebrafish larvae, 27 μg/ml LPS, 24 h
Description: (§1) An LPS induced zebrafish sepsis model which mimics the hallmarks of human sepsis was developed (Philip et al., 2017). Zebrafish show varied susceptibility and responsiveness to LPS from different bacterial strains. Exposure of zebrafish larvae at 3 days post-fertilization (dpf) to two types of LPS (LPS from Escherichia coli 0111:B4 (Sigma) at 100 μg/ml for 5-6 hrs; or LPS from Salmonella at 27 μg/ml for 24 hrs) were both effective in inducing tail fin swelling, increased ROS production, increased vascular leakage and increased mortality.
Survival analyses for zebrafish (wildtype) exposed to various concentrations of LPS (Escherichia coli 0111:B4; Sigma) was performed. 3 dpf larvae were exposed to LPS by immersion technique. Larvae were treated with 10, 25, 50, 125, 250, 500, 1000, 2500, 5000 or 10000 nM UNC0642 along with 100 μg/ml LPS (LPS was dissolved in eggwater), by static immersion at 28.5° C. for 24 h in a total volume of 2 mL per treatment. Control larvae were exposed to egg water. Survival numbers were recorded and EC50s calculated.
(§2) 3 dpf larvae were exposed to LPS by immersion technique. […] Control larvae were exposed to egg water. Survival numbers were recorded and EC50s calculated. The percentage (%) of embryos showing vascular leakage was also recorded and 1050s calculated.

[2] = system: LPS-induced vascular leakage; assay: Vascular leakage (leaked red blood cells in tailfin) in LPS-treated zebrafish larvae; details: comparison of UNC0642 and A366, zebrafish larvae, 27 μg/ml LPS, 24 h
Description: as §1
3 dpf Tg (flk1:GFP; gata-1:Dsred) double transgenic larvae were exposed to Vehicle, LPS (100 μg/ml) or LPS+1 μM UNC0642 by static immersion for 6 h at 28.5° C. to induce endothe-lial dysfunction and the resulting leakage of red blood cells. The larvae were then imaged using a Leica fluorescence microscope (Leica Microsystems, Wetzlar, Germany). Red blood cells that leaked out into the tailfin region were quantified.
as §2

zebrafish larvae = assay: Toxicity in zebrafish larvae; details: 3 dpf larvae, observed daily for 72 hours post incubation
Source text: Parameters of developmental toxicity (organ size and shape), cardiac toxicity (cardiac edema and heart rate), neuromuscular toxicity (touch response) and finally death were investigated.

COc1cc2c(cc1OCCCN1CCCC1)N=C(N)C21CCC1 [A366, 5-Methoxy-6′-[3-(1-pyrrolidinyl)propoxy]spiro[cyclobutane-1,3′-[3H]indol]-2′-amine]
Rescue of sepsis-associated mortality [1]: able to rescue
Rescue of sepsis-associated vascular leakage [2]: able to rescue
Concentration below which non-toxic to zebrafish embryos (zebrafish larvae): below 2.5 mM
